Laboratory results taken from patent publication US20250109140A1, “5-[5-(PIPERIDIN-4-YL)THIENO[3,2-C]PYRAZOL-2-YL]INDAZOLE DERIVATIVES AND RELATED COMPOUNDS AS MODULATORS FOR SPLICING NUCLEIC ACIDS AND FOR THE TREATMENT OF PROLIFERATIVE DISEASES” (REMIX THERAPUTICS INC., priority 2022, published 2025).
Read-outs that look alike come from different tables or passages of the source.

What was measured:
HiBiT-tagged MYB protein = test: HiBiT protein abundance assay, MYB (K562 HiBiT knock-in cells); assay type: cell-based, human; conditions: 24 hours treatment
Protocol: (§1) Compounds described herein were used to screen for effects on quantitative protein abundance using a HiBit assay system (Promega). Quantitative protein abundance was determined by measuring the protein levels of HiBit-tagged protein targets expressed in cell culture via luminescence using the Nano-Glo HiBiT Lytic Detection System, which uses a split complementation assay format to reconstitute NanoBiT enzyme to generate a luminescent signal. A protein abundance assay was developed such that endogenous protein targets could be modified with the HiBiT peptide tag and their abundance could be assessed after compound treatment. Briefly, K562 cell lines containing a HiBiT-modification were treated with various compounds described herein (e.g., compounds of Formulas (I), or (II)). After treatment for 24 hours, the protein abundance of a specific target was determined by measuring luminescence.
(§2) Cells were maintained in IMDM with 10% FBS. Before the assay, cells were diluted with […] growth media (IMDM+[…] media) and were seeded in a 384-well plate at a density of 10000 cells/well (for each cell line listed in Table 6). Each compound was prepared as a 10-point 3-fold serial dilution in DMSO with the top dose at a final concentration of […] in the well. Unmodified K562 cells were added at the previously specified density with DMSO to serve as an assay baseline and positive control (PC) and DMSO only with the respective modified cell lines was added to the negative control (NC) columns. Final DMSO concentration was kept at or below 0.25%. Treated cell plates were placed in an incubator at 37° C. with […] for 24 hours. After 24 hours, 25 μL of Complete HiflitLytic reagent was added to each well at room temperature (e.g. one plate requiring 10 mL Lytic Buffer, 100 μL LgBiT Protein, 200 μL Lytic Substrate), shaken for 5 minutes at 600 RPM, then left to sit for 10 minutes for signal to stabilize before reading on a Spark Cyto plate reader (Tecan) with a 500 ms measurement time.
(§3) To determine compound effects on protein abundance of each target in Table 6, the percent response for each respective cell line was calculated at each compound concentration as follows:
(§4) For the normalized response at each concentration, a four-parameter logistical regression was fit to the data and the response was interpolated at the 50% value to determine a concentration for protein abundance at 50% (IC50) the untreated control.

Target C = test: HiBiT protein abundance assay, Target C (K562 HiBiT knock-in cells); assay type: cell-based, human; conditions: 24 hours treatment
Protocol: • Promega Nano-Glo HiBiT Lytic Detection System (cat #N3030) • Corning 384-well TC-treated microplates (cat #3570) • Synthego Engineered Cells Knock-In Clones
as §2, §3, §4

Target C mRNA = test: Splicing RT-qPCR gene panel, Target C canonical junction (CJ) mRNA; assay type: cell-based; conditions: Homo sapiens; Table 8; larger gene panel, decrease in CJ mRNA levels
In short: (§5)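 Junction-specific RT-qPCR read-out: CJ marks canonical transcript, AJ marks alternative-exon inclusion, each normalized to GAPDH, GUSB or PPIA. Cells (A673 or K562) were dosed for 24 h with compound up to 10 uM final in 11 3-fold steps. RQ from 2^(−ΔΔCt) against DMSO became percentage response.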

MYB mRNA = test: Splicing RT-qPCR assay, MYB canonical (CJ) and alternative (AJ) junction mRNA; assay type: cell-based; conditions: Homo sapiens; for EC50: AC50 = 50% response in AJ mRNA increase
In short: as §5

[1] = tested on: K562 (human chronic myelogenous leukemia) cells; test: Cell viability, Cell Titer Glo 2.0 assay, K562 cells; assay type: cell-based; conditions: 72 hours
Protocol: Compounds described herein were screened for toxicity in K562 (human chronic myelogenous leukemia) and SH-SY5Y (human neuroblastoma) cells using a Cell Titer Glo 2.0 assay.
Cells were plated at 500 cells/well (K562 cells) in 45 μL of IMDM supplemented with 10% FBS in a 384-well opaque plate. Wells containing only medium were used as a blank control. Test compounds (e.g., compounds of Formula (I), (III), (IV), (V), or (VI)) were first serially diluted in DMSO then diluted 1:100 with IMDM+10% FBS. The final concentration of DMSO was 0.1% in each well. The cells were incubated for 72 hours at 37° C. and 5% CO2 before assaying with Cell Titer Glo 2.0 reagent.

SMN2 mRNA = test: Splicing RT-qPCR gene panel, SMN2 canonical junction (CJ) mRNA; assay type: cell-based; conditions: Homo sapiens; Table 8; larger gene panel, decrease in CJ mRNA levels
In short: as §5

HiBiT-tagged HTT protein = test: HiBiT protein abundance assay, HTT (K562 HiBiT knock-in cells); assay type: cell-based, human; conditions: 24 hours treatment
Protocol: as §1, §2, §3, §4

HTT mRNA = test: Splicing RT-qPCR assay, HTT canonical (CJ) and alternative (AJ) junction mRNA; assay type: cell-based; conditions: Homo sapiens; for EC50: AC50 = 50% response in AJ mRNA increase
In short: as §5

[2] = Table 7, RT-qPCR, A673 or K562 cells, 24 hours treatment
[3] = Table 7, IC50 = 50% response in CJ mRNA decrease, RT-qPCR, A673 or K562 cells, 24 hours treatment, read-out: MYB CJ
[4] = Table 8, larger gene panel, decrease in CJ mRNA levels, read-out: MYB CJ IC50
[5] = Table 7, IC50 = 50% response in CJ mRNA decrease, RT-qPCR, A673 or K562 cells, 24 hours treatment, read-out: HTT CJ
[6] = Table 8, larger gene panel, decrease in CJ mRNA levels, read-out: HTT CJ IC50

| Compound | IC50 (HiBiT-tagged MYB protein) [nM] | IC50 (Target C) [nM] | IC50 (Target C mRNA) [nM] | EC50 (MYB mRNA; [2]) [nM] | IC50 (MYB mRNA; [3]) [nM] | IC50 (MYB mRNA; [4]) [nM] | IC50 [1] [nM] | IC50 (SMN2 mRNA) [nM] | IC50 (HiBiT-tagged HTT protein) [nM] | EC50 (HTT mRNA; [2]) [nM] | IC50 (HTT mRNA; [5]) [nM] | IC50 (HTT mRNA; [6]) [nM] |
| --- | --- | --- | --- | --- | --- | --- | --- | --- | --- | --- | --- | --- |
| Cn1cc2cc(-c3cc4cn(C5CCNCC5)nc4s3)ncc2n1 [Compound 214] | 1000 to 10000 | 1000 to 10000 | 1000 to 10000 | 1000 to 10000 | 1000 to 10000 | 1000 to 10000 | 1000 to 10000 | 100 to 1000 | 1000 to 10000 | 100 to 1000 | 1000 to 10000 | 100 to 1000 |
| Cn1cc2cc(-n3cc4cc(C5CCNCC5)sc4n3)c(O)cc2n1 [Compound 220] | 1000 to 10000 | 1000 to 10000 | 1000 to 10000 | 1000 to 10000 | 1000 to 10000 | 1000 to 10000 | 1000 to 10000 | 1000 to 10000 | 1000 to 10000 | 1000 to 10000 | 1000 to 10000 | 1000 to 10000 |
| Cn1cc2cc(-c3cc4cn([C@H]5CCNC[C@H]5F)nc4s3)cc(F)c2n1 [Compound 182] | 100 to 1000 | 100 to 1000 | 100 to 1000 | 1000 to 10000 | 100 to 1000 | 1000 to 10000 | 100 to 1000 | < 100 | < 100 | 100 to 1000 | < 100 | 100 to 1000 |
| Cn1cc2cc(-c3cc4cn(C5CCNCC5)nc4s3)c(F)cc2n1 [Compound 210] | 100 to 1000 | 100 to 1000 | 100 to 1000 | 100 to 1000 | 100 to 1000 | 100 to 1000 | 100 to 1000 | < 100 | < 100 | < 100 | < 100 | < 100 |
| CCN1CCC(n2cc3cc(-c4cc(F)c5nn(C)cc5c4)sc3n2)CC1 [Compound 149, 5-[2-(1-ethylpiperidin-4-yl)thieno[2,3-c]pyrazol-5-yl]-7-fluoro-2-methylindazole] | 100 to 1000 | 100 to 1000 | 100 to 1000 | 100 to 1000 | 100 to 1000 | 100 to 1000 | 100 to 1000 | < 100 | < 100 | < 100 | < 100 | < 100 |
| Cn1cc2cc(-n3cc4sc(C5CCNCC5)cc4n3)cc(F)c2n1 [Compound 105, 7-fluoro-2-methyl-5-[5-(piperidin-4-yl)thieno[3,2-c]pyrazol-2-yl]indazole] | 1000 to 10000 | 1000 to 10000 | 1000 to 10000 | 1000 to 10000 | 1000 to 10000 | 1000 to 10000 | 1000 to 10000 | 100 to 1000 | 100 to 1000 | 100 to 1000 | 100 to 1000 | 100 to 1000 |
| Cc1cn2nc(-n3cc4cc(C5CCNCC5)sc4n3)cc2c(C)n1 [Compound 164] | 1000 to 10000 | 1000 to 10000 | 1000 to 10000 | 1000 to 10000 | 1000 to 10000 | 1000 to 10000 | 1000 to 10000 | 1000 to 10000 | 1000 to 10000 | 1000 to 10000 | 1000 to 10000 | 1000 to 10000 |
| COc1c(-c2cc3cn(C4CCNCC4)nc3s2)nn2cc(C)nc(C)c12 [Compound 219, 4-(5-{3-methoxy-4,6-dimethylpyrazolo[1,5-a]pyrazin-2-yl}thieno[2,3-c]pyrazol-2-yl) piperidine] | > 10000 | > 10000 | > 10000 | > 10000 | > 10000 | > 10000 | 1000 to 10000 | 1000 to 10000 | > 10000 | > 10000 | > 10000 | > 10000 |
| Cc1cn2cc(-n3cc4sc(C5CCNCC5)cc4n3)cc(F)c2n1 [Compound 166, 4-(2-{8-fluoro-2-methylimidazo[1,2-a]pyridin-6-yl}thieno[3,2-c]pyrazol-5-yl)piperidine] | 100 to 1000 | 100 to 1000 | 1000 to 10000 | 1000 to 10000 | 1000 to 10000 | 1000 to 10000 | 1000 to 10000 | 100 to 1000 | 100 to 1000 | 100 to 1000 | 100 to 1000 | 100 to 1000 |
